This note sets out measurements from ChEMBL document CHEMBL1149301, “Benzoyl ring halogenated classical 2-amino-6-methyl-3,4-dihydro-4-oxo-5-substituted thiobenzoyl-7H-pyrrolo[2,3-d]pyrimidine antifolates as inhibitors of thymidylate synthase and as antitumor agents” (J Med Chem, 2004).

Data set [1] has as its target Thymidylate synthase (Escherichia coli, UniProt C3SWJ7). As to the kind of experiment: Inhibition of Escherichia coli thymidylate synthase.
In data set [2] the test system is CCRF-CEM. As to the kind of experiment: Growth inhibition of human CCRF-CEM cells. Type of data set: functional, cell-based.
For the next data set, the system named is R2. As to the kind of experiment: Growth inhibition of MTX-resistant human CCRF-CEM R2 cells. Type of data set: functional, cell-based.
Data set [3] deals with CCRF-CEM. As to the kind of experiment: Growth inhibition of MTX-resistant human CCRF-CEM R30dm cells. Type of data set: functional, cell-based.
The subject of data set [4] is CCRF-CEM. As to the kind of experiment: Growth inhibition of human CCRF-CEM leukemia cells at 2400 nM relative to leucovorin. Type of data set: functional.
Data set [5] in a line: Cytotoxicity against human EKVX cells. Type of data set: cell-based.
Data set [6] in a line: Cytotoxicity against HCC2998 cells. In kind it is cell-based, HCC 2998. The following applies: human.
The next data set has as its system SF-268. As to the kind of experiment: Cytotoxicity against SF268 cells. The following applies: Homo sapiens. Type of data set: functional.
Data set [7] can be described thus: Cytotoxicity against NCI/ADR-RES cells. In kind it is cell-based. The following applies: human.
Data set [8] is described as follows: Cytotoxicity against BT549 cells. Type of data set: cell-based, BT-549. The following applies: human.
Data set [9] addresses T1, Folylpolyglutamate synthase, mitochondrial (Homo sapiens) (UniProt Q05932).
T1 sequence (whole entry): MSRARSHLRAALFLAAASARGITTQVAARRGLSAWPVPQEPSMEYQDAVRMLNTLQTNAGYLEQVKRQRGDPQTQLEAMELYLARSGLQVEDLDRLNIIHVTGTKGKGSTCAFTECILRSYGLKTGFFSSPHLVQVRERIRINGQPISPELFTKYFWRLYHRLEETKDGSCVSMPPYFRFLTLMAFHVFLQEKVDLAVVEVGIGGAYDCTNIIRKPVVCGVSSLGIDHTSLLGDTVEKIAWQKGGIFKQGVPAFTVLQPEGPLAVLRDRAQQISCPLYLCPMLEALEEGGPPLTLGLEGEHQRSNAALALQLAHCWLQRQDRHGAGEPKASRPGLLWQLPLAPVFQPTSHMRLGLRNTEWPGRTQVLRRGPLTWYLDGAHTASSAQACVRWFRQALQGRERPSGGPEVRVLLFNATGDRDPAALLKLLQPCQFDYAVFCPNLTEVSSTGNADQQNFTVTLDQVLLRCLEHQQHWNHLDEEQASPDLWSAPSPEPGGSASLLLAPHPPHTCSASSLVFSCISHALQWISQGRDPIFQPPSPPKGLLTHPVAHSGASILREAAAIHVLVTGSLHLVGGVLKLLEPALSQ
As to the kind of experiment: Ratio of relative Vmax to Km of human recombinant FPGS.

The target in data set [10] is Thymidylate synthase (Homo sapiens, UniProt P04818).
For data set [11], the target named is T2, Dihydrofolate reductase (Homo sapiens, UniProt P00374).
T2 sequence (P00374 whole entry): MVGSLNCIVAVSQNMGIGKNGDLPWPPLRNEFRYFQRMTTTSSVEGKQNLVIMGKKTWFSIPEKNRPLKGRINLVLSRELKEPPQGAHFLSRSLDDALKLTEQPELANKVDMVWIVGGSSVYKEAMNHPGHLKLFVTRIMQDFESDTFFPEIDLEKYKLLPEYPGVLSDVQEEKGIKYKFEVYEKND

Data set [12] concerns the target T3, Dihydrofolate reductase (Escherichia coli, UniProt P0ABQ4).
T3 sequence (P0ABQ4 whole entry): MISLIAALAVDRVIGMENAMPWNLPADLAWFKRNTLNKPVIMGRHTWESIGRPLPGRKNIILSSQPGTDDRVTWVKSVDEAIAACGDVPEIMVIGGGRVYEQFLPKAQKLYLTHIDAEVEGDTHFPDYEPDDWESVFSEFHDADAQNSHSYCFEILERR

Another data set has as its system R1. As to the kind of experiment: Growth inhibition of MTX-resistant human CCRF-CEM R1 cells overexpressing DHFR.
For data set [13], the system named is CCRF-CEM. As to the kind of experiment: Protection against 40 nM methotrexate-induced growth inhibition of human CCRF-CEM leukemia cells at 5 uM relative to control. In kind it is functional. Further details: scale not given: the % may be the effect or the level left.
For data set [14], the system named is CCRF-CEM. As to the kind of experiment: Protection against 5000 nM N-[4-[(2-amino-6-methyl-3,4-dihydro-4-oxo-7H-pyrrolo[2,3-d]pyrimidin-5-yl)thio]-2fluorobenzoyl]-L-glutamic acid-induced growth inhibition of human CCRF-CEM cells at 5 uM relative to control. Type of data set: functional. Set-up: scale not given: the % may be the effect or the level left.
Data set [15] has as its system CCRF-CEM. As to the kind of experiment: Protection against 2400 nM N-[4-[(2-amino-6-methyl-3,4-dihydro-4-oxo-7H-pyrrolo[2,3-d]pyrimidin-5-yl)thio]-2chlorobenzoyl]-L-glutamic acid-induced growth inhibition of human CCRF-CEM cells at 5 uM relative to control. Type of data set: functional. Further details: scale not given: the % may be the effect or the level left.
Data set [16] deals with CCRF-CEM. As to the kind of experiment: Growth inhibition of human CCRF-CEM cells by thymidine at 5 uM relative to control. Further details: scale not given: the % may be the effect or the level left.
In data set [17] the test system is CCRF-CEM. As to the kind of experiment: Growth inhibition of human CCRF-CEM leukemia cells at 5000 nM relative to leucovorin. In kind it is functional.
The nature of data set [18]: Cytotoxicity against human CCRF-CEM leukemia cells. In kind it is cell-based.
In data set [19] the test system is CCRF-CEM. As to the kind of experiment: Protection against methotrexate-induced effect in human CCRF-CEM cells assessed as growth inhibition at 0.1 mM. In kind it is functional. Set-up: scale not given: the % may be the effect or the level left.
Data set [20] relates to CCRF-CEM. As to the kind of experiment: Protection against compound 4- or 5-induced effect in human CCRF-CEM cells assessed as growth inhibition at […]. Set-up: scale not given: the % may be the effect or the level left.
Substrate in data set [21]: Cc1[nH]c2nc(N)[nH]c(=O)c2c1Sc1ccc(C(=O)N[C@@H](CCC(=O)O)C(=O)O)c(Cl)c1
As to the kind of experiment: (§1) Activity of human recombinant FPGS.

Substrate in data set [22]: Cc1[nH]c2nc(N)[nH]c(=O)c2c1Sc1ccc(C(=O)N[C@@H](CCC(=O)O)C(=O)O)c(F)c1
The description is as §1.

Substrate in data set [23]: Nc1nc(N)c2nc(CNc3ccc(C(=O)N[C@@H](CCC(=O)O)C(=O)O)cc3)cnc2n1
The data set is described as §1.

Substrate in data set [24]: Cc1[nH]c2nc(N)[nH]c(=O)c2c1Sc1ccc(C(=O)N[C@@H](CCC(=O)O)C(=O)O)c(Cl)c1
As to the kind of experiment: (§2) Activity of human recombinant FPGS relative to AMT.

Substrate in data set [25]: Cc1[nH]c2nc(N)[nH]c(=O)c2c1Sc1ccc(C(=O)N[C@@H](CCC(=O)O)C(=O)O)c(F)c1
Described as §2.

Chain of Thymidylate synthase (Homo sapiens, UniProt P04818) (P04818 whole entry): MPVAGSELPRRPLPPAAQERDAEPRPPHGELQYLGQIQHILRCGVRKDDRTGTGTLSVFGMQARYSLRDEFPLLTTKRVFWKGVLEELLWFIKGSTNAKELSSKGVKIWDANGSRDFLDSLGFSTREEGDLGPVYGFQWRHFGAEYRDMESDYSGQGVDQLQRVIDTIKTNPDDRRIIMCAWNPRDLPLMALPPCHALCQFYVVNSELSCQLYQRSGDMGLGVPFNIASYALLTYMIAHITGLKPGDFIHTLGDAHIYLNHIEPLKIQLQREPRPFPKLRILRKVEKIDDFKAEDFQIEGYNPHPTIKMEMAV
Chain of Thymidylate synthase (Escherichia coli, UniProt C3SWJ7) (C3SWJ7 whole entry): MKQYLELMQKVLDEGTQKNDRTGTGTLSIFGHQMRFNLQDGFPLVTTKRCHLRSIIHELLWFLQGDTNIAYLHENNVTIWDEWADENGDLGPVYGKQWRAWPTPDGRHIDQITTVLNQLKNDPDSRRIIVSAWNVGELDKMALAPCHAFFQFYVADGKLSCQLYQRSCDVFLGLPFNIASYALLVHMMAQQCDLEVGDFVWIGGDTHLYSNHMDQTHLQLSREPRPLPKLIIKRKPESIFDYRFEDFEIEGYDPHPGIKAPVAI

In general, IC50 refers to the midpoint of a concentration-inhibition curve. One may read the EC50 as the concentration that produces a half-maximal response. Broadly, the inhibition is how much of the control response was suppressed. As usually defined, the GI50 is the concentration at which growth is held to half of that of the control. `Cc1[nH]c2nc(N)[nH]c(=O)c2c1Sc1ccc(C(=O)N[C@@H](CCC(=O)O)C(=O)O)c(Cl)c1`: the IC50 came to 5.1 µM on Thymidylate synthase [1], 0.051 µM at Thymidylate synthase [10], 11 µM against Dihydrofolate reductase [11] and 40 µM at Dihydrofolate reductase [12]. For the same molecule, the EC50 amounted to 0.69 µM in the data set with CCRF-CEM [2], 12 µM in the data set on R2, 1.2 µM with CCRF-CEM [3] and 1.9 µM in the data set with R1. The molecule further displayed an inhibition at 2.4 µM in the data set on CCRF-CEM [4] of 11%. For the same molecule, the GI50 in [5] was 0.758 µM; in data set [6], 1.48 µM; in the data set with SF-268 it was 7.44 µM; in [7], 8.54 µM; in [8], less than 0.01 µM. Further, the Ratio in data set [9] was 0.
With `Cc1cn([C@H]2C[C@H](O)[C@@H](CO)O2)c(=O)[nH]c1=O` [DOXRIBTIMINE], the Activity in the data set on CCRF-CEM [13] stood at 10%; in the data set with CCRF-CEM [14], 96%; with CCRF-CEM [15], 92%; in the data set on CCRF-CEM [16] it was 40%.
Take `Cc1[nH]c2nc(N)[nH]c(=O)c2c1Sc1ccc(C(=O)N[C@@H](CCC(=O)O)C(=O)O)cc1`: the IC50 against Dihydrofolate reductase [11] is 2.1 µM; on Dihydrofolate reductase [12] it was 21 µM.
On to `CN(Cc1cnc2nc(N)nc(N)c2n1)c1ccc(C(=O)N[C@@H](CCC(=O)O)C(=O)O)cc1` [METHOTREXATE], for which the EC50 with R2 came to 2.1 µM; in the data set with R1, 0.68 µM.
On to `Nc1nc(N)c2nc(CNc3ccc(C(=O)N[C@@H](CCC(=O)O)C(=O)O)cc3)cnc2n1`, for which the Ratio in data set [9] turned out to be 0.23.
Turning to `Cc1[nH]c2nc(N)[nH]c(=O)c2c1Sc1ccc(C(=O)N[C@@H](CCC(=O)O)C(=O)O)c(F)c1`, the IC50 at Thymidylate synthase [1] amounted to 0.72 µM; against Thymidylate synthase [10], 0.054 µM; on Dihydrofolate reductase [11], 2.1 µM; at Dihydrofolate reductase [12], 21 µM. In addition, the EC50 is 0.215 µM with CCRF-CEM [2], 2.45 µM in the data set on R2, 0.305 µM in the data set on CCRF-CEM [3] and 0.505 µM in the data set on R1. In the data set with CCRF-CEM [17], this molecule registered a relative growth at 5 µM of 10. Also, the GI50 in data set [18] was 0.712 µM; in [5] it was 6.83 µM; in [6], less than 0.01 µM; in the data set with SF-268, 0.347 µM; in [7], 0.383 µM; in data set [8], 2.21 µM. The Ratio in data set [9] is 0.
As for `Nc1nc(=O)c2c([nH]1)NCC(CNc1ccc(C(=O)N[C@@H](CCC(=O)O)C(=O)O)cc1)N2C=O` (some centres not stated) [LEUCOVORIN], the Activity turned out to be 6% with CCRF-CEM [19] and 90% with CCRF-CEM [20].

B1: Folylpolyglutamate synthase, mitochondrial (Homo sapiens), Q05932 (protein)
chain: MSRARSHLRAALFLAAASARGITTQVAARRGLSAWPVPQEPSMEYQDAVRMLNTLQTNAGYLEQVKRQRGDPQTQLEAMELYLARSGLQVEDLDRLNIIHVTGTKGKGSTCAFTECILRSYGLKTGFFSSPHLVQVRERIRINGQPISPELFTKYFWRLYHRLEETKDGSCVSMPPYFRFLTLMAFHVFLQEKVDLAVVEVGIGGAYDCTNIIRKPVVCGVSSLGIDHTSLLGDTVEKIAWQKGGIFKQGVPAFTVLQPEGPLAVLRDRAQQISCPLYLCPMLEALEEGGPPLTLGLEGEHQRSNAALALQLAHCWLQRQDRHGAGEPKASRPGLLWQLPLAPVFQPTSHMRLGLRNTEWPGRTQVLRRGPLTWYLDGAHTASSAQACVRWFRQALQGRERPSGGPEVRVLLFNATGDRDPAALLKLLQPCQFDYAVFCPNLTEVSSTGNADQQNFTVTLDQVLLRCLEHQQHWNHLDEEQASPDLWSAPSPEPGGSASLLLAPHPPHTCSASSLVFSCISHALQWISQGRDPIFQPPSPPKGLLTHPVAHSGASILREAAAIHVLVTGSLHLVGGVLKLLEPALSQ
The term Km denotes the concentration of substrate that gives half-maximal velocity. Regarding B1, the Km in data set [21] and in data set [22] was less than 250 µM each time. The values for the Vmax in data set [23], in data set [24] and in data set [25] were 1, 0 and 0, respectively.
